Experimental data as given in PubChem BioAssay AID489023 (Sanford-Burnham Center for Chemical Genomics, 2010).
Activity calls are given as the source filed them. The rule behind the calls is not given here.

The compounds below were run on 697B cells, BCR-induced NF-kB luciferase reporter luminescence (assay: inhibitors of BCR-induced NF-kB activation, dose response, 697B cells, luciferase luminescence (AID 489023)).
`COc1ccc(/C=N/OCC(=O)NC(c2ccccc2)c2ccccc2)cc1OC` was tested, and the IC50 was > 80 µM (inactive).
`CN(C)c1cc[n+](Cc2c(Cl)cccc2Cl)cc1` was tested, and the IC50 was > 80 µM (inactive).
For `CN1C(=O)CSc2ccc(NC(=O)N3CCN(c4ccccc4)CC3)cc21`, the IC50 was 74 µM (inactive).
In the case of `CCOC(=O)Cc1csc(NC(=S)NC(=O)c2ccc(Cl)cc2)n1`, the IC50 is reported as 30.6 µM (inactive).
For `CCCCCC/C=C/c1ccc(OC)c([C@H]2[C@H]3C=CC[C@@H](C)[C@@H]3C(=O)N2Cc2ccccc2)c1`, the IC50 was > 80 µM (inactive).
In the case of `COc1cc(OC)cc(-c2cc3nc(C)c(CCC(=O)Nc4nc(C)cs4)c(C)n3n2)c1`, the IC50 is reported as 13.2 µM.
With `COc1ccc(-n2c(-c3ccc(Cl)cc3)c[n+]3c2CCc2ccccc2-3)cc1` the IC50 was > 80 µM (inactive).
For `COc1cccc(N2CCN(c3ncnc4c3[nH]c3ccc(F)cc34)CC2C)c1` (stereo unspecified), the IC50 was 0.79 µM.
Work on `COc1cc(-c2nc(C(=O)NCC3CCCO3)cc3c2[nH]c2ccccc23)cc(OC)c1OC` (stereo unspecified) yielded an IC50 of 12.2 µM.
For `Cc1ccc(C2(c3ccc(C)cc3)CC2C(=O)Nc2ccc([N+](=O)[O-])cc2O)cc1` (stereo unspecified), the IC50 was 73.4 µM (inactive).
`Cc1cc(OCC(=O)N2CCC(C(N)=O)CC2)c2c3c(c(=O)oc2c1)CCCC3` was tested, and the IC50 was > 80 µM (inactive).
Compound `CCc1ccc(/C=C2\SC(=S)N(CCC(=O)Nc3cc(C)on3)C2=O)cc1` has an IC50 of 19.3 µM.
With `Cc1cnc(NC(=O)Nc2ccc(Cl)cc2)s1` the IC50 was > 80 µM (inactive).
With `Oc1cc(O)cc(-c2cc3ccc(O)cc3o2)c1` the IC50 was > 80 µM (inactive).
In the case of `CC1CN(S(=O)(=O)c2ccc(C(=O)Nc3nc(-c4cc5ccccc5o4)cs3)cc2)CC(C)O1` (stereo unspecified), the IC50 is reported as > 80 µM (inactive).
In the case of `Cc1cc(C)c2nc(NC(=O)C3CSC4(C)CCC(=O)N34)sc2c1` (stereo unspecified), the IC50 is reported as 32.2 µM (inactive).
For `Cc1ccccc1-c1cc(C(=O)Nc2sc(C(=O)OC(C)C)c(C)c2C#N)c2ccccc2n1`, the IC50 was 42.8 µM (inactive).
For `Cc1nc([N+](=O)[O-])c(Sc2nc3ccc([N+](=O)[O-])cc3[nH]2)n1Cc1ccccc1`, the IC50 was 8.74 µM.
In the case of `CC(C)C(c1nnnn1Cc1ccccc1)N(Cc1ccco1)Cc1cccs1` (stereo unspecified), the IC50 is reported as > 80 µM (inactive).
With `CC1=CC(C)(C)Nc2ccc(OC(=O)c3cccnc3)cc21` the IC50 was 14.3 µM.
In the case of `COc1ccc(C2=NCc3nnc(C)n3-c3ccc(Cl)cc32)cc1Cl`, the IC50 is reported as 43.6 µM (inactive).
`CCc1ccc(/C=C2/SC(=S)N(CCC(=O)Nc3cccnc3)C2=O)cc1` was tested, and the IC50 was 0.85 µM.
With `COc1ccc(/C=C2\SC(=S)N(CCCC(=O)NNC(=O)c3ccccc3O)C2=O)cc1` the IC50 was 0.68 µM.
For `Cc1ccc(/C=C2\SC(=S)N(CCC(=O)NNC(=O)c3ccncc3)C2=O)cc1`, the IC50 was > 80 µM (inactive).
In the case of `Cc1ccc(-c2nn3c(C)nnc3c3ccccc23)cc1S(=O)(=O)NCc1ccco1`, the IC50 is reported as 29.3 µM (inactive).
In the case of `O=C(CCCN1C(=O)/C(=C/c2ccccc2Cl)SC1=S)NNC(=O)c1ccccc1Cl`, the IC50 is reported as 4.23 µM.
`Cn1c(=O)cc(OCCCC(=O)NCc2ccccn2)c2ccccc21` was tested, and the IC50 was > 80 µM (inactive).
Compound `Cn1c(=NC(=O)CCl)sc2ccccc21` has an IC50 of 0.59 µM.
With `COc1ccc(/C=C\C(=O)O[C@@H]2C(O)C(O[C@@H]3OC(C)[C@H](O[C@@H]4OCC(O[C@H]5O[C@H](CO)[C@@H](O)C(O)C5O)C(O)C4O)C(O)C3O)[C@H](OC(=O)[C@]34CCC(C)(C)C[C@@H]3C3=CCC5[C@@]6(C)CC(O)C(O[C@@H]7OC(CO)C(O)[C@H](O)[C@H]7O)[C@@](C)(C(=O)O)C6CC[C@@]5(C)[C@]3(CO)CC4)O[C@H]2C)cc1` (stereo partly specified) the IC50 was 19.8 µM.
`COc1ccc(/C=C2\SC(=S)N(CCC(=O)Nc3ccc(O)cc3)C2=O)cc1` was tested, and the IC50 was > 80 µM (inactive).
With `COc1ccc(/C=C2\SC(=S)N(CCC(=O)Nc3ccc(C(=O)O)cc3)C2=O)cc1` the IC50 was > 80 µM (inactive).
With `CCOc1ccc(-c2cc(CCCC(=O)NCc3ccc(C)cc3)no2)cc1` the IC50 was > 80 µM (inactive).
In the case of `COc1ccc(-n2nnnc2S(=O)(=O)CC(=O)N2CCCCC2)cc1`, the IC50 is reported as 0.79 µM.
`Cc1ccc(/C=C2\SC(=S)N(CCCC(=O)Nc3ccccn3)C2=O)cc1` gave an IC50 of 0.37 µM.
For `CC(C)c1[nH]nc2c1C(c1ccco1)C(C#N)=C(N)O2` (stereo unspecified), the IC50 was > 80 µM (inactive).
`O=C(O)CCSc1nc2ccccc2s1` gave an IC50 of 10.1 µM.
